These compounds were tested against T1, Streptokinase A (Streptococcus pyogenes serotype M1, UniProt P10520) (assay: viability-normalized secreted streptokinase activity reduction – plasminogen activation absorbance, OD405, dose response (AID 1914)).
T1 sequence (P10520 whole entry): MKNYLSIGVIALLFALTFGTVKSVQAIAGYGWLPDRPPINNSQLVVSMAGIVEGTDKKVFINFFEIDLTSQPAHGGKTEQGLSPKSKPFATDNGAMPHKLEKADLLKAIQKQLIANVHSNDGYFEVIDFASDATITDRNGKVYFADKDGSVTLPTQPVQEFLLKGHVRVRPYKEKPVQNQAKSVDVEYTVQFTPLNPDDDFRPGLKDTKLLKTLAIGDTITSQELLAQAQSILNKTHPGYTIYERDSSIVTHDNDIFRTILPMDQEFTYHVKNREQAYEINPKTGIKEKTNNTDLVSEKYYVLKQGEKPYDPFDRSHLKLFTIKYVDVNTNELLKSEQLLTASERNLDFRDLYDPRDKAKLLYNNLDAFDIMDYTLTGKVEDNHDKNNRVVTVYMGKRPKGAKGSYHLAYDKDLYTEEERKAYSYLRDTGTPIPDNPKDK

Compound	EC50 [µM]
Cc1cc(=O)n(-c2nc(-c3ccccc3)cs2)[nH]1 [SMR000175888]	10
O=C1N=C(Nc2ccc(F)cc2)SC1=Cc1c[nH]c2ccccc12 [(5Z)-2-[(4-fluorophenyl)amino]-5-(1H-indol-3-ylmethylidene)-1,3-thiazol-4-one]	> 150
CCCOc1ccc(C(=O)C2C(=O)C(=O)N(c3ccccn3)C2c2ccc(OC)cc2)cc1C (centres undefined) [(4Z)-4-[hydroxy-(3-methyl-4-propoxyphenyl)methylidene]-5-(4-methoxyphenyl)-1-(2-pyridinyl)pyrrolidine-2,3-dione]	103
CC(C)COC(=O)c1cccc2c1-c1ccccc1C2N=O (centres undefined) [isobutyl 9-(hydroxyimino)-9H-fluorene-4-carboxylate]	50
O=C(Oc1cccc(CN=Nc2nc(Nc3ccccc3)nc(N3CCOCC3)n2)c1)c1ccco1	> 150
CCCc1sc(N=NCc2ccccn2)nc1-c1ccc(Br)cc1 [SMR000116777]	> 150
CCOC(=O)c1sc(N2C(=O)C(=O)C(C(=O)c3ccco3)C2c2cccc(Cl)c2)nc1C (centres undefined)	> 150
Cc1ccc(NNC2=CS(=O)(=O)N(C)c3ccsc32)cc1 [4-methyl-N-[(1-methyl-2,2-dioxo-4-thieno[3,2-c]thiazinylidene)amino]aniline]	4.04
O=C(CC1=NC2(CCCC2)Cc2ccccc21)C(=O)NN=Cc1ccccc1O [SMR000219463]	> 150
CN(C)c1ccc(C2CC(c3ccc(Cl)cc3OC(F)F)=Nc3ncnn32)cc1 (centres undefined)	> 150
Cc1ccc(-c2nn(-c3ccccc3)cc2CN=O)cc1 [N-[[3-(4-methylphenyl)-1-phenylpyrazol-4-yl]methylidene]hydroxylamine]	> 150
Cc1nc(N=NC(C)c2ccc(Br)cc2)cc(N2CCCCC2)n1 (centres undefined) [N-[1-(4-bromophenyl)ethylideneamino]-2-methyl-6-piperidin-1-ylpyrimidin-4-amine]	46.7
CC1=CC(C)(C)N2C(=O)/C(=N\N)c3c(C)c(C)cc1c32 [SMR000414935]	16.3
COc1cccc(CN=Nc2nc(Nc3ccccc3)nc(-n3nc(C)cc3C)n2)c1O [(6E)-6-[[2-[4-(3,5-dimethylpyrazol-1-yl)-6-phenylazanyl-1,3,5-triazin-2-yl]hydrazinyl]methylidene]-2-methoxy-cyclohexa-2,4-dien-1-one]	> 150
CC(C)(C)C1CCC2=C(C#N)C(=N)C(C#N)(C#N)C(c3cccs3)C2C1 (centres undefined) [MLS000552642]	25.7
CC1=C2C(=NC3=C(C(=O)c4ccccc43)C2c2c(C)cc(C)cc2C)N(c2ccccn2)N1 (centres undefined) [SMR000263933]	22.2
Cc1ccc2c(c1)=C(NNC(=O)c1ccc(NS(=O)(=O)c3cccs3)cc1)C(=O)N=2 [N-[4-[[(5-methyl-2-oxoindol-3-yl)amino]carbamoyl]phenyl]thiophene-2-sulfonamide]	> 150
COc1cccc(C(=O)Oc2ccc(CN=Nc3ccc(C(=O)O)cc3)cc2OC)c1 [SMR000502791]	> 150
Fc1ccc(Br)cc1C1CC(c2ccc(Br)s2)=Nc2ncnn21 (centres undefined) [SMR000032932]	> 150
Cc1sc2ncnc(N=NCc3ccccc3O)c2c1C	8.21
Cc1cc(C)nc(N=NCc2cc(Br)ccc2O)n1	> 150
CC(=N)C(C#N)C(=O)COC(=O)c1cc(-c2ccc(Br)cc2)nc2ccccc12 (centres undefined) [SMR000264784]	4.43
COc1cccc(CN=Nc2cc(N3CCOCC3)ncn2)c1O [(6E)-2-methoxy-6-[[N'-(6-morpholinopyrimidin-4-yl)hydrazino]methylene]cyclohexa-2,4-dien-1-one]	> 150
Oc1ccc2ccccc2c1CN=Nc1nnc(-c2ncc[nH]2)c2ccccc12 [SMR000151639]	5.52
CNC(=O)c1c(NC(=O)c2ccc(-n3c(O)ccc3O)cc2)sc2c1CCC(C)C2 (centres undefined) [SMR000806319]	> 150

Compound	EC50 [µM]
CC(C)(C)c1cc(-c2cs/c(=N\c3ccccc3)n2Cc2ccc(C(=O)O)cc2)cc(C(C)(C)C)c1O [4-[[4-(3,5-ditert-butyl-4-oxidanyl-phenyl)-2-phenylazanyl-1,3-thiazol-3-ium-3-yl]methyl]benzoic acid;bromide]	> 150
O=C1N=C(Nc2ccccc2)SC1=Cc1c[nH]c2ccccc12 [MLS000766635]	> 150
C=c1c(C#N)c(N)[nH]c2c(C#N)c(C)c(=Cc3ccc(C)cc3)c1=2	12.3
COc1ccc(CN=Nc2nc(Nc3ccccc3)nc(N3CCCCC3)n2)cc1OC [N2-[(3,4-dimethoxyphenyl)methylideneamino]-N4-phenyl-6-piperidin-1-yl-1,3,5-triazine-2,4-diamine]	> 150
O=C1C=CC(N=Nc2ccc([N+](=O)[O-])cc2)C(O)=C1 (centres undefined) [MLS000530152]	50
O=C1N=c2ccccc2=C1NNC(=S)NCCc1ccccc1 [1-[(2-oxo-3-indolyl)amino]-3-(2-phenylethyl)thiourea]	> 150
Cc1[nH]n(-c2nc3ccccc3[nH]2)c(=O)c1Cc1ccccc1 [MLS000762809]	> 150
CCc1ccc2c(c1)=C(NNc1nc(-c3ccccc3)cs1)C(=O)N=2 [5-ethyl-1H-indole-2,3-dione 3-[(4-phenyl-1,3-thiazol-2(3H)-ylidene)hydrazone]]	> 150
Cc1cc(C)c(N=Nc2c(C)[nH]n(C(N)=S)c2=O)c(C)c1	> 150
CC(NNC(=O)c1ccccc1O)=C1C(=O)c2ccccc2C1=O [MLS000523164]	> 150
O=C1C=CC([N+](=O)[O-])=CC1/C=N/NC(=O)C(O)(c1ccccc1)c1ccccc1 (centres undefined)	> 150
O=C1C(Br)=CC([N+](=O)[O-])=C/C1=C\NNC(=O)C12CC3CCC(CC(C3)C1)C2 [SMR000414723]	> 150
Oc1nc(Nc2ccc(Cl)cc2)sc1Cc1cc(Cl)ccc1Cl [2-(4-chloroanilino)-5-(2,5-dichlorobenzyl)-2-thiazolin-4-one]	> 150
COC(=O)c1sc(N2C(=O)C(=O)C(C(=O)c3ccc(C)o3)C2c2ccc([N+](=O)[O-])cc2)nc1C (centres undefined) [methyl 2-[4-hydroxy-3-(5-methylfuran-2-carbonyl)-2-(4-nitrophenyl)-5-oxo-2H-pyrrol-1-yl]-4-methyl-1,3-thiazole-5-carboxylate]	> 150
COc1cc(CN=Nc2nc(Nc3ccc(C)cc3)nc(-n3nc(C)cc3C)n2)cc(OC)c1OC	> 150
COc1ccccc1Nc1oc2cc(=O)ccc-2cc1C(N)=O [2-(2-methoxyanilino)-7-oxo-1-benzopyran-3-carboxamide]	> 150
CCC(C)N1C(=O)C(=CNNc2ccccc2)C(=O)NC1=S (centres undefined)	> 150
CN1C(=O)C(=NNc2nc(-c3ccccc3)cs2)c2ccccc21 [SMR000243133]	7.09
O=[N+]([O-])c1cccc(CN=Nc2nc(N3CCCCC3)nc(N3CCCCC3)n2)c1 [N-[(3-nitrophenyl)methylideneamino]-4,6-bis(1-piperidinyl)-1,3,5-triazin-2-amine]	39.4
N#CC1C(=N)SC(=N)C(C#N)C1c1c(Cl)cccc1Cl (centres undefined) [SMR000009709]	93.5
Cc1[nH]c2ccccc2c1CN=Nc1nc2ccccc2[nH]1 [N-(1H-Benzoimidazol-2-yl)-N'-[1-(2-methyl-1H-indol-3-yl)-meth-(E)-ylidene]-hydrazine]	> 150
Cc1ccc(NC(=S)N/N=C2\C(=O)Nc3ccccc32)cc1 [MLS000760038]	> 150
CCC1C(c2ccccc2)NC(c2ccccc2)C(CC)C1N=O (centres undefined) [SMR000283074]	13.3
O=C1Nc2ccccc2SC1C=Nc1cccc(Cl)c1 (centres undefined)	> 150

From BindingDB's records for doi:10.7270/Q2736PBV (Broad Institute, 2009)
